Target: H1047R PIK3CA enzyme (Homo sapiens, UniProt P42336, H1047R)
Experiment: ADP-Glo Biochemical PIK3CA Kinase Assay

Chain of H1047R PIK3CA enzyme (P42336 whole entry H1047R): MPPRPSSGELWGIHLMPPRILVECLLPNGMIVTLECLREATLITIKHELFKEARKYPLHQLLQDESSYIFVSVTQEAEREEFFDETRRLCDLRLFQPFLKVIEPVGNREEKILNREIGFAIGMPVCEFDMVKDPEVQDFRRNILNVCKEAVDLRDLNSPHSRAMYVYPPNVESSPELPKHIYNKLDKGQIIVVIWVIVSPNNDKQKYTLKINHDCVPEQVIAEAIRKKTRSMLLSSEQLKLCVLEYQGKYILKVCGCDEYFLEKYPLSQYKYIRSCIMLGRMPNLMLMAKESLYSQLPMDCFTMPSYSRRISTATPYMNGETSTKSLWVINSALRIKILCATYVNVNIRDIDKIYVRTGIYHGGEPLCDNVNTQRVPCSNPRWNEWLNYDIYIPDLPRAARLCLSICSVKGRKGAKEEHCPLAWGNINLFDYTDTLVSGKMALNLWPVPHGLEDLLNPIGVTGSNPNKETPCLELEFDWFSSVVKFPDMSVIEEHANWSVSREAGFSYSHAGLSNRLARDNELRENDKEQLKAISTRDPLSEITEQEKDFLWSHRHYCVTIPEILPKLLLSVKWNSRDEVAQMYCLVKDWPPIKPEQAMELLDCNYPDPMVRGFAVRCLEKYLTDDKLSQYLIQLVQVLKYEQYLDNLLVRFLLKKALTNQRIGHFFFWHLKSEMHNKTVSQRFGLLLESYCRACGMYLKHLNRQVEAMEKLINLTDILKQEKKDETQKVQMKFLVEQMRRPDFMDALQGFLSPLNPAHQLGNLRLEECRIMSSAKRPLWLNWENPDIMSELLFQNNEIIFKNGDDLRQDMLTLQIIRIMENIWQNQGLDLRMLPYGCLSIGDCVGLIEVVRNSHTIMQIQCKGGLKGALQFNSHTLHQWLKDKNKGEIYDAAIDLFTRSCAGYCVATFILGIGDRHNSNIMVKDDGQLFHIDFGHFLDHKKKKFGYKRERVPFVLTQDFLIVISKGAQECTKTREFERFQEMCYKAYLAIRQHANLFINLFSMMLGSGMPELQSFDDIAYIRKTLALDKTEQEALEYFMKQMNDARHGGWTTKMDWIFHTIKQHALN
Chain of H1047R PIK3CA enzyme (P27986 whole entry partner): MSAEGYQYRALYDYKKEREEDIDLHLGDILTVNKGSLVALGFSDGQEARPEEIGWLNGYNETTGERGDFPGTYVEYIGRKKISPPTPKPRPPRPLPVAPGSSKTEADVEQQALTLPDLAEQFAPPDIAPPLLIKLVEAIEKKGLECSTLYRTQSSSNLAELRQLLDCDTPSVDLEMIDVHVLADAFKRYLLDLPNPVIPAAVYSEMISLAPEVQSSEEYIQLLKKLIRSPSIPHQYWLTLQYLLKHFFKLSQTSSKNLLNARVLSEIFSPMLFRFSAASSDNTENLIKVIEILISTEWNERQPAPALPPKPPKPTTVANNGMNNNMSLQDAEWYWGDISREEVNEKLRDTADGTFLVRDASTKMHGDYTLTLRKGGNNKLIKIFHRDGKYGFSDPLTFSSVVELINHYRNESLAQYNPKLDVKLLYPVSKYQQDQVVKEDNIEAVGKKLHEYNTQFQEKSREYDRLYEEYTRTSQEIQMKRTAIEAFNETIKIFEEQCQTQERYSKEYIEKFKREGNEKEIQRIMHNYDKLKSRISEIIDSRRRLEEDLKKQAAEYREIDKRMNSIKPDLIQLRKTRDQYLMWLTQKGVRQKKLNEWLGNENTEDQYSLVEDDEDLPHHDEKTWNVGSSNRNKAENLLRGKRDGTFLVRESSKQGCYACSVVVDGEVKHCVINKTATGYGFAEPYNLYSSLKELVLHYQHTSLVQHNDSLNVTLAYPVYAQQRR

Row | IC50 | Compound
1 | 1 to 10 µM | C[C@@H](c1cc(NC(=O)c2cc(F)cc(C(F)(F)F)c2)c2c(c1)C(=O)N[C@@H]2c1cc(F)ccc1Cl)S(C)(=O)=O (single isomer, unassigned) [Compound I-1640]
2 | 0.5 to 1 µM | CC(C)n1cc(-c2cc(NC(=O)c3cc(F)cc(C(F)(F)F)c3)c3c(n2)C(=O)N[C@@H]3c2cc(F)ccc2Cl)ccc1=O [Compound I-650]
3 | 10 to 100 µM | O=C1NC(c2cc(F)ccc2Cl)c2c(NC(=O)N3CCc4cc(C(F)(F)F)ccc43)cccc21 (stereo not drawn) [Compound I-2436]
4 | 10 to 100 µM | O=C1NC(c2cc(F)ccc2Cl)c2c(NCC3CCCCC3)cc(Br)cc21 (stereo not drawn) [Compound I-1726]
5 | 1 to 10 µM | O=C1NC(c2cc(F)ccc2Cl)c2c(O)cc(-c3ccc4ncnn4c3)cc21 (stereo not drawn) [Compound I-1891]
6 | 1 to 10 µM | CC1(Cc2cc(NC(=O)N3C[C@@](O)(C(F)(F)F)c4cc(F)ccc43)c3c(c2)C(=O)N[C@@H]3c2cc(F)ccc2Cl)COC1 (single isomer, unassigned) [Compound I-2658]
7 | ≤ 0.1 µM | O=C(Nc1cc(OC(F)F)cc2c1C(c1cc(F)ccc1Cl)NC2=O)c1cc(F)cc(C(F)(F)F)c1 (stereo not drawn) [Compound I-812]
8 | 10 to 100 µM | O=C1N[C@H](c2cc(F)ccc2Cl)c2c(NC(=O)[C@H]3C[C@@H](O)C[C@@H](C(F)(F)F)C3)cc(Br)cc21 (single isomer, unassigned) [Compound I-2272]
9 | 0.1 to 0.5 µM | O=C(Nc1cc(Br)cc2c1C(c1cc(F)ccc1Cl)NC2=O)NC12CC3CC(C1)CC(C(F)(F)F)(C3)C2 (stereo not drawn) [Compound I-1256]
10 | ≤ 0.1 µM | O=C1NC(c2cc(F)c(F)cc2C(F)F)c2c(NC(=O)c3nsc4ccc(F)cc34)cccc21 (stereo not drawn) [Compound I-332]
11 | 1 to 10 µM | O=C(Nc1cccc2c1C(c1cccc3ccccc13)NC2=O)c1cc(F)cc(C(F)(F)F)c1 (stereo not drawn) [Compound I-431]
12 | 10 to 100 µM | O=C1NCc2c(NC(=O)c3csc4ccccc34)cccc21 [Compound I-3]
13 | ≤ 0.1 µM | O=C(Nc1cc(C2COC2)cc2c1[C@H](c1cc(F)ccc1Cl)NC2=O)c1cc(F)cc(C(F)(F)F)c1 [Compound I-590]
14 | ≤ 0.1 µM | CS(=O)(=O)Oc1cc(NC(=O)c2cc(F)cc(C(F)(F)F)c2)c2c(c1)C(=O)NC2c1cc(F)ccc1Cl (stereo not drawn) [Compound I-1543]
15 | 10 to 100 µM | O=C(COc1ccccc1)Nc1cc(-c2ccc3ncnn3c2)cc2c1C(c1cc(F)ccc1Cl)NC2=O (stereo not drawn) [Compound I-1688]
16 | 10 to 100 µM | O=C1N[C@H](c2cc(F)ccc2Cl)c2c(NC(=O)N3C[C@H](O)C[C@@H](C(F)(F)F)C3)cccc21 (single isomer, unassigned) [Compound I-2236]
17 | 10 to 100 µM | CC(C(CO)CC(=O)Nc1cccc2c1C(c1cc(F)ccc1Cl)NC2=O)C(F)(F)F (mixture of isomers) [Compound I-2197]
18 | 1 to 10 µM | O=C(Nc1ccnc2c1C(c1cccc(F)c1F)NC2=O)c1cc(F)cc(C(F)(F)F)c1 (stereo not drawn) [Compound I-174]
19 | 10 to 100 µM | O=C(Nc1cc(-c2cc(F)c3ncnn3c2)cc2c1[C@@H](c1cc(F)ccc1Cl)NC2=O)c1cc(F)cc(C(F)(F)F)c1 [Compound I-1703]
20 | 1 to 10 µM | CC[C@]1(O)CN(C(=O)Nc2cccc3c2[C@@H](c2cc(F)ccc2Cl)NC3=O)c2ccc(F)cc21 (single isomer, unassigned) [Compound I-2460]

Row | IC50 | Compound
21 | 1 to 10 µM | O=C(Nc1cccc2c1C(c1cc(F)ccc1Cl)NC2=O)c1cc(Cl)cc2c1OCC2 (stereo not drawn) [Compound I-596]
22 | 10 to 100 µM | O=C1N[C@@H](c2cc(F)ccc2Cl)c2c(NC(=O)N3CCC[C@@](O)(C(F)(F)F)C3)cccc21 (single isomer, unassigned) [Compound I-2116]
23 | 10 to 100 µM | O=C1NC(c2ccc3ccccc3c2)c2c(NC(=O)c3nsc4ccccc34)cccc21 (stereo not drawn) [Compound I-392]
24 | 0.5 to 1 µM | C[C@@]1(C(=O)Nc2cc(Br)cc3c2[C@@H](c2cc(F)ccc2Cl)NC3=O)CCC[C@H](C(F)(F)F)C1 (single isomer, unassigned) [Compound I-2260]
25 | 1 to 10 µM | O=C(Nc1cc(Br)cc2c1[C@@H](c1ccc(F)cc1Cl)NC2=O)c1cc(F)cc(C(F)(F)F)c1 [Compound I-754]
26 | 1 to 10 µM | O=C1N[C@H](c2cc(F)ccc2Cl)c2c(NC(=O)N3C[C@H](O)c4cc(F)ccc43)cc(-c3cnn(C(F)F)c3)cc21 (single isomer, unassigned) [Compound I-2475]
27 | ≤ 0.1 µM | O=C(Nc1cc(-c2cncc(F)c2)nc2c1C(c1cc(F)ccc1Cl)NC2=O)c1cc(F)cc(C(F)(F)F)c1 (stereo not drawn) [Compound I-585]
28 | ≤ 0.1 µM | O=C(Nc1cc(-c2ccc3c(c2)OCO3)cc2c1C(c1cc(F)ccc1Cl)NC2=O)c1cc(F)cc(C(F)(F)F)c1 (stereo not drawn) [Compound I-741]
29 | 1 to 10 µM | O=C1N[C@H](c2cc(F)ccc2Cl)c2c(NC(=O)N3C[C@@](O)(C(F)(F)F)c4cc(F)ccc43)cc(C3COC3)cc21 (single isomer, unassigned) [Compound I-2654]
30 | 10 to 100 µM | O=C(Nc1cccc2c1C(c1cccc(B(O)O)c1)NC2=O)c1cc(F)cc(C(F)(F)F)c1 (stereo not drawn) [Compound I-717]
31 | 1 to 10 µM | O=C1NC(c2cc(F)ccc2Cl)c2c(NC(=O)c3cc(F)cc4cn[nH]c34)cccc21 (stereo not drawn) [Compound I-595]
32 | 1 to 10 µM | O=C1NC(c2cc(F)ccc2Cl)c2c(NC(=O)C(Cl)c3ccccc3)cc(-c3ccc4ncnn4c3)cc21 (stereo not drawn) [Compound I-1630]
33 | ≤ 0.1 µM | CS(=O)(=O)N1CCC[C@H]1COc1cc(NC(=O)c2cc(F)cc(C(F)(F)F)c2)c2c(c1)C(=O)NC2c1cc(F)ccc1Cl (single isomer, unassigned) [Compound I-1375]
34 | 10 to 100 µM | O=C(Nc1cc(Br)cc2c1C(c1cc(F)ccc1Cl)NC2=O)c1ccccc1F (stereo not drawn) [Compound I-466]
35 | 0.1 to 0.5 µM | Cc1ccccc1C1NC(=O)c2cccc(NC(=O)c3csc4c(F)cccc34)c21 (stereo not drawn) [Compound I-36]
36 | ≤ 0.1 µM | O=C(Nc1cc(N2CCn3cnnc3C2)cc2c1C(c1cc(F)ccc1Cl)NC2=O)c1cc(F)cc(C(F)(F)F)c1 (stereo not drawn) [Compound I-1354]
37 | 0.5 to 1 µM | N#Cc1cc(NC(=O)N2C[C@@H](O)c3cc(F)ccc32)c2c(c1)C(=O)N[C@@H]2c1cc(F)ccc1Cl (single isomer, unassigned) [Compound I-2492]
38 | 1 to 10 µM | O=C1N[C@@H](c2cc(F)ccc2Cl)c2c(NC(=O)N3C[C@@](O)(C(F)(F)F)c4cc(F)ccc43)cc(-n3ccccc3=O)cc21 (single isomer, unassigned) [Compound I-2530]
39 | 10 to 100 µM | CN1CCCC[C@H]1C(=O)Nc1cc(-c2ccc3ncnn3c2)cc2c1[C@H](c1cc(F)ccc1Cl)NC2=O (racemic) [Compound I-1948]
40 | 0.1 to 0.5 µM | C[C@@H](C#N)Cn1cc(-c2cc(NC(=O)N3C[C@H](O)c4cc(F)ccc43)c3c(c2)C(=O)N[C@@H]3c2cc(F)ccc2Cl)cn1 (single isomer, unassigned) [Compound I-2501]

Row | IC50 | Compound
41 | 10 to 100 µM | O=C1N[C@@H](c2cc(F)ccc2Cl)c2c(NC(=O)[C@@H]3CCC[C@@H](OC(F)(F)F)C3)cccc21 (single isomer, unassigned) [Compound I-2216]
42 | ≤ 0.1 µM | CC(C)(O)c1cc(NC(=O)N2CCc3ccccc32)c2c(c1)C(=O)N[C@H]2c1cc(F)ccc1Cl [Compound I-713]
43 | 1 to 10 µM | O=C1N[C@@H](c2cc(F)ccc2Cl)c2c(NC(=O)N3C[C@@H](O)c4cc(F)ccc43)cc(-n3cccn3)cc21 (single isomer, unassigned) [Compound I-2366]
44 | 0.1 to 0.5 µM | O=C(Nc1cc(C(O)CN2CC(F)(F)C2)cc2c1C(c1cc(F)ccc1Cl)NC2=O)c1cc(F)cc(Cl)c1 (stereo not drawn) [Compound I-334]
45 | 1 to 10 µM | CC(C)[C@]1(O)CN(C(=O)Nc2cccc3c2[C@@H](c2cc(F)ccc2Cl)NC3=O)c2ccc(F)cc21 (single isomer, unassigned) [Compound I-2455]
46 | 0.1 to 0.5 µM | O=C(Nc1cc(Br)cc2c1C(c1ccc(F)cc1Cl)NC2=O)c1cc(F)cc(C(F)(F)F)c1 (stereo not drawn) [Compound I-756]
47 | 1 to 10 µM | O=C1N[C@H](c2cc(F)ccc2Cl)c2c(NC(=O)N3C[C@](O)(C(F)(F)F)c4cc(F)ccc43)cc(-n3ccccc3=O)cc21 (single isomer, unassigned) [Compound I-2531]
48 | ≤ 0.1 µM | O=C(Nc1cc(Cn2cccn2)cc2c1C(c1cc(F)ccc1Cl)NC2=O)c1cc(F)cc(C(F)(F)F)c1 (stereo not drawn) [Compound I-1497]
49 | 0.1 to 0.5 µM | Cc1ccccc1[C@H]1NC(=O)c2c(C(N)=O)ccc(NC(=O)c3cc(F)cc(C(F)(F)F)c3)c21 [Compound I-509]
50 | 10 to 100 µM | CN(C)c1cc(NC(=O)N2C[C@@](O)(C(F)(F)F)c3cc(F)ccc32)c2c(n1)C(=O)N[C@@H]2c1cc(F)ccc1Cl (single isomer, unassigned) [Compound I-2693]
51 | 1 to 10 µM | CC[C@]1(O)CN(C(=O)Nc2cccc3c2[C@H](c2cc(F)ccc2Cl)NC3=O)c2ccc(F)cc21 (single isomer, unassigned) [Compound I-2462]
52 | ≤ 0.1 µM | N#Cc1cnccc1-c1cc(NC(=O)c2cc(F)cc(C(F)(F)F)c2)c2c(c1)C(=O)N[C@H]2c1cc(F)ccc1Cl (stereo in doubt) [Compound I-1232]
53 | 1 to 10 µM | O=C(Nc1cccc2c1C(C1CCNCC1)NC2=O)c1cc(F)cc(C(F)(F)F)c1 (racemic) [Compound I-1770]
54 | 1 to 10 µM | O=C1N[C@@H](c2cc(F)ccc2Cl)c2c(NC(=O)N3C[C@@H](O)c4c3ccc(F)c4F)cccc21 (single isomer, unassigned) [Compound I-2313]
55 | ≤ 0.1 µM | O=C1NC(c2cc(Cl)ccc2Cl)c2c(NC(=O)c3nsc4ccccc34)cccc21 (stereo not drawn) [Compound I-157]
56 | ≤ 0.1 µM | O=C(Nc1cc(-c2ccnn2C[C@H]2CCOC2)cc2c1C(c1cc(F)ccc1Cl)NC2=O)c1cc(F)cc(C(F)(F)F)c1 (single isomer, unassigned) [Compound I-1406]
57 | 0.5 to 1 µM | N#Cc1cnn(Cc2cc(NC(=O)N3C[C@@](O)(C(F)(F)F)c4cc(F)ccc43)c3c(c2)C(=O)N[C@@H]3c2cc(F)ccc2Cl)c1 (single isomer, unassigned) [Compound I-2670]
58 | 0.5 to 1 µM | CCC[C@@]1(O)CN(C(=O)Nc2cccc3c2[C@@H](c2cc(F)ccc2Cl)NC3=O)c2ccc(F)cc21 (single isomer, unassigned) [Compound I-2457]
59 | 10 to 100 µM | O=C1NC(c2cc(F)ccc2Cl)c2c(NC(=O)c3noc4c3COCC4)cccc21 (stereo not drawn) [Compound I-2232]
60 | ≤ 0.1 µM | CN(C)C(=O)Cc1cc(NC(=O)c2cc(F)cc(C(F)(F)F)c2)c2c(c1)C(=O)NC2c1cc(F)ccc1Cl (stereo not drawn) [Compound I-476]

Reference: patent publication US12581252B2, “Substituted pyrrolo[3,4-b]pyridines as PI3K-α inhibitors” (Relay Therapeutics, Inc., priority 2020, dated 2026)
